Biological target: Cytochrome P450 3A4 (Homo sapiens, UniProt P08684)
Assay: CYP Inhibition Assay
Excerpt: The final concentrations of DMSO and acetonitrile were equal to or less than 0.1%.

Chain of Cytochrome P450 3A4 (P08684 whole entry): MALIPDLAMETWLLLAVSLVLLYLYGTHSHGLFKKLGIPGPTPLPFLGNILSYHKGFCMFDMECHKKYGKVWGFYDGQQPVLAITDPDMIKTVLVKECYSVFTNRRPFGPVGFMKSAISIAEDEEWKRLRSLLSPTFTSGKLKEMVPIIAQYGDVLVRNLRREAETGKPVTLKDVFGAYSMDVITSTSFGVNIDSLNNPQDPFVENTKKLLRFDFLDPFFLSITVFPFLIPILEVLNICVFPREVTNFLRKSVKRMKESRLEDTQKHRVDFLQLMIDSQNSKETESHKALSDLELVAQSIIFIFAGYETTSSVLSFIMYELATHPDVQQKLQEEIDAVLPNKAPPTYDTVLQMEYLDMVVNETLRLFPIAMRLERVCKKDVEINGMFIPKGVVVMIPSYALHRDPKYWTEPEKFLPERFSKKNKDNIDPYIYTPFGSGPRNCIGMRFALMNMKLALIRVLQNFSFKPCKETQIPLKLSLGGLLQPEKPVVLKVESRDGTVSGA

IC50: 279 µM
SMILES: CC(=O)CCC(=O)Nc1ncc2cc1O[C@H](C)c1cc(F)ccc1C(=O)N(C)Cc1nn(C)c(C#N)c1-2 [US12338251, Compound 3]

Source: BindingDB's records for patent US12338251 (Teligene US, 2025)
